Experimental data as given in patent publication US7709498B2, “Quinoline derivatives as antibacterial agents” (Janssen Pharmaceutica N.V., priority 2005, dated 2010).
Values after ≈ are worked out from the molar mass of the structure shown.

Legend:
Format in all cases: cell-based
[1] = tested on: Enterococcus faecalis (ATCC29212); assay: Microtitre plate assay, IC90 determination, EFA 29212; settings: 90% inhibitory concentration for bacterial growth, 37° C., resazurin fluorescence; for IC90: Enterococcus faecalis, ATCC29212, 24 h, read-out: IC90 (μg/ml) EFA 29212; for IC90 (μg/ml) EFA 29212: 24 hours
Procedure: (§1) The bacteria used in this study were grown overnight in flasks containing 100 ml Mueller-Hinton Broth (Becton Dickinson—cat. no. 275730) in sterile de-ionized water, with shaking, at 37° C. Stocks (0.5 ml/tube) were stored at −70° C. until use. Bacteria titrations were performed in microtiter plates to detect the TCID50, in which the TCID50 represents the dilution that gives rise to bacterial growth in 50% of inoculated cultures.
(§2) In general, an inoculum level of approximately 100 TCID50 was used for susceptibility testing.
(§3) Flat-bottom, sterile 96-well plastic microtiter plates were filled with 180 μl of sterile deionized water, supplemented with 0.25% BSA. Subsequently, stock solutions (7.8× final test concentration) of compounds were added in 45 μl volumes in column 2. Serial five-fold dilutions (45 μl in 180 μl) were made directly in the microtiter plates from column 2 to reach column 11. Untreated control samples with (column 1) and without (column 12) inoculum were included in each microtiter plate. Depending on the bacteria type, approximately 10 to 60 CFU per well of bacteria inoculum (100 TCID50), in a volume of 100 μl in 2.8× Mueller-Hinton broth medium, was added to the rows A to H, except column 12. The same volume of broth medium without inoculum was added to column 12 in row A to H. The cultures were incubated at 37° C. for 24 hours under a normal atmosphere (incubator with open air valve and continuous ventilation). At the end of incubation, one day after inoculation, the bacterial growth was quantitated fluorometrically. Therefore resazurin (0.6 mg/ml) was added in a volume of 20 μl to all wells 3 hours after inoculation, and the plates were re-incubated overnight. A change in colour from blue to pink indicated the growth of bacteria. The fluorescence was read in a computer-controlled fluorometer (Cytofluor Biosearch) at an excitation wavelength of 530 nm and an emission wavelength of 590 nm. The % growth inhibition achieved by the compounds was calculated according to standard methods. The IC90 (expressed in μg/ml) was defined as the 90% inhibitory concentration for bacterial growth.
(§4) BSU 3639 means Bacillus subtilis (ATCC43639); ECO 25922 means Escherichia coli (ATCC25922); EFA 14506 means Enterococcus faecalis (ATCC14506); EFA 29212 means Enterococcus faecalis (ATCC29212); LMO 49594 means Listeria monocytogenes (ATCC49594); PAE 27853 means Pseudomonas aeruginosa (ATCC27853); SMU 33402 means Streptococcus mutans (ATCC33402); SPN 6305 means Streptococcus pneumoniae (ATCC6305); SPY 8668 means Streptococcus pyogens (ATCC8668); STA 43300 means Staphylococcus aureus (ATCC43300); STA 25923 means Staphylococcus aureus (ATCC25923); STA 29213 means Staphylococcus aureus (ATCC29213); STA RMETH means methicilline resistant Staphylococcus aureus (MRSA) (a clinical isolate from the University of Antwerp). ATCC means American type tissue culture.

[2] = tested on: Listeria monocytogenes (ATCC49594); assay: Microtitre plate assay, IC90 determination, LMO 49594; settings: 90% inhibitory concentration for bacterial growth, 37° C., resazurin fluorescence; for IC90: Listeria monocytogenes, ATCC49594, 24 h, read-out: IC90 (μg/ml) LMO 49594; for IC90 (μg/ml) LMO 49594: 24 hours
Procedure: as §1, §2, §3, §4

[3] = tested on: Bacillus subtilis (ATCC43639); assay: Microtitre plate assay, IC90 determination, BSU 43639; settings: 90% inhibitory concentration for bacterial growth, 37° C., resazurin fluorescence; for IC90: Bacillus subtilis, ATCC43639, 24 h, read-out: IC90 (μg/ml) BSU 43639; for IC90 (μg/ml) BSU 43639: 24 hours
Procedure: as §1, §2, §3, §4

[4] = tested on: Streptococcus pneumoniae (ATCC6305); assay: Microtitre plate assay, IC90 determination, SPN 6305; settings: 90% inhibitory concentration for bacterial growth, 37° C., resazurin fluorescence; for IC90: Streptococcus pneumoniae, ATCC6305, 24 h, read-out: IC90 (μg/ml) SPN 6305; for IC90 (μg/ml) SPN 6305: 24 hours
Procedure: as §1, §2, §3, §4

[5] = tested on: Pseudomonas aeruginosa (ATCC27853); assay: Microtitre plate assay, IC90 determination, PAE 27853; settings: 90% inhibitory concentration for bacterial growth, 37° C., resazurin fluorescence; for IC90: Pseudomonas aeruginosa, ATCC27853, 24 h, read-out: IC90 (μg/ml) PAE 27853
Procedure: as §1, §2, §3, §4

[6] = tested on: Staphylococcus aureus (ATCC43300); assay: Microtitre plate assay, IC90 determination, STA 43300; settings: 90% inhibitory concentration for bacterial growth, 37° C., resazurin fluorescence; for IC90: Staphylococcus aureus, ATCC43300, 24 h, read-out: IC90 (μg/ml) STA 43300
Procedure: as §1, §2, §3, §4

[7] = tested on: Streptococcus mutans (ATCC33402); assay: Microtitre plate assay, IC90 determination, SMU 33402; settings: 90% inhibitory concentration for bacterial growth, 37° C., resazurin fluorescence; for IC90: Streptococcus mutans, ATCC33402, 24 h, read-out: IC90 (μg/ml) SMU 33402
Procedure: as §1, §2, §3, §4

[8] = tested on: Streptococcus pyogens (ATCC8668); assay: Microtitre plate assay, IC90 determination, SPY 8668; settings: 90% inhibitory concentration for bacterial growth, 37° C., resazurin fluorescence; for IC90: Streptococcus, ATCC8668, 24 h, read-out: IC90 (μg/ml) SPY 8668; for IC90 (μg/ml) SPY 8668: 24 hours
Procedure: as §1, §2, §3, §4

[9] = tested on: Enterococcus faecalis (ATCC14506); assay: Microtitre plate assay, IC90 determination, EFA 14506; settings: Enterococcus faecalis, ATCC14506, 24 h, 90% inhibitory concentration for bacterial growth, 37° C., resazurin fluorescence, read-out: IC90 (μg/ml) EFA 14506
Procedure: as §1, §2, §3, §4

[10] = tested on: Staphylococcus aureus (ATCC25923); assay: Microtitre plate assay, IC90 determination, STA 25923; settings: 90% inhibitory concentration for bacterial growth, 37° C., resazurin fluorescence; for IC90: Staphylococcus aureus, ATCC25923, 24 h, read-out: IC90 (μg/ml) STA 25923
Procedure: as §1, §2, §3, §4

SMILES | IC90 [1] | IC90 [2] | IC90 [3] | IC90 [5] | IC90 (μg/ml) LMO 49594 [2] | IC90 (μg/ml) SPN 6305 [4] | also measured
COc1nc2ccc(-c3cccnc3)cc2cc1C(c1ccccc1)C(O)(CCN(C)C)c1cc(F)cc(F)c1 (stereo not shown) [Compound G] | 10.8 µg/mL (≈ 20 µM) | 10.8 µg/mL (≈ 20 µM) | 13.6 µg/mL (≈ 25.2 µM) | – | – | – | –
COc1nc2ccc(Br)cc2cc1C(c1ccccc1)C(O)(CCN(C)C)c1ccccc1F (stereo not shown) [Compound 69] | – | 10.4 µg/mL (≈ 19.9 µM) | – | 10.4 µg/mL (≈ 19.9 µM) | – | – | IC90 [4]: 13.1 µg/mL (≈ 25 µM)
COc1nc2ccc(Br)cc2cc1C(c1ccccc1)C(O)(CCN1CCN(C)CC1)c1ccc2ccccc2c1 (racemic) [Compound 136] | – | – | – | – | 10.6 µg/mL (≈ 17.4 µM) | – | IC90 (μg/ml) EFA 29212 [1]: 10.6 µg/mL (≈ 17.4 µM); IC90 (μg/ml) BSU 43639 [3]: 10.6 µg/mL (≈ 17.4 µM)
COc1nc2ccc(Br)cc2cc1C(c1ccc(Cl)cc1)C(O)(CCN(C)C)c1ccccc1 (stereo not shown) [Compound 36] | 4.8 µg/mL (≈ 8.89 µM) | 5.4 µg/mL (≈ 10 µM) | 24.1 µg/mL (≈ 44.6 µM) | 4.8 µg/mL (≈ 8.89 µM) | – | 2.7 µg/mL (≈ 5 µM) | IC90 [6]: 4.8 µg/mL (≈ 8.89 µM); IC90 [7]: 3.8 µg/mL (≈ 7.04 µM); IC90 [8]: 0.4 µg/mL (≈ 0.741 µM)
COc1nc2ccc(Br)cc2cc1C(c1ccccc1)C(O)(CCN(C)C)c1ccc2c(c1)OCCO2 (stereo not shown) [Compound 77] | – | – | – | 11.2 µg/mL (≈ 19.9 µM) | – | – | IC90 [4]: 14.2 µg/mL (≈ 25.2 µM)
COc1nc2ccc(Br)cc2cc1C(c1ccccc1)C(O)(CCN1CCCCC1)c1ccc2cc(Br)ccc2c1 (stereo not shown) [Compound 155] | – | – | – | – | – | – | IC90 [9]: 26.9 µg/mL (≈ 39.9 µM)
COc1nc2ccc(Br)cc2cc1C(c1ccccc1)C(O)(CCN1CCN(C)CC1)c1ccccc1 (racemic) [Compound 51] | – | – | – | – | 25.0 µg/mL (≈ 44.6 µM) | 5.6 µg/mL (≈ 9.99 µM) | IC90 (μg/ml) EFA 29212 [1]: 25.0 µg/mL (≈ 44.6 µM); IC90 (μg/ml) BSU 43639 [3]: 28.1 µg/mL (≈ 50.1 µM)
COc1nc2ccc(-c3ccccc3)cc2cc1C(c1ccccc1)C(O)(CCN(C)C)c1ccccc1 (stereo not shown) [Compound 27] | – | – | – | – | 8.9 µg/mL (≈ 17.7 µM) | 12.6 µg/mL (≈ 25.1 µM) | IC90 (μg/ml) BSU 43639 [3]: 10.0 µg/mL (≈ 19.9 µM)
CCOc1nc2ccc(Br)cc2cc1C(c1ccccc1)C(O)(CCN(C)C)c1ccccc1 (stereo not shown) [Compound 6] | 11.6 µg/mL (≈ 22.3 µM) | 11.6 µg/mL (≈ 22.3 µM) | – | 11.6 µg/mL (≈ 22.3 µM) | – | – | IC90 [4]: 13 µg/mL (≈ 25 µM); IC90 (μg/ml) SMU 33402 ([7]; 24 hours): 4.6 µg/mL (≈ 8.85 µM); IC90 [8]: 4.6 µg/mL (≈ 8.85 µM)
COc1nc2ccc(Br)cc2cc1C(c1ccccc1)C(O)(CCN(C)C)C1CCN(C(=O)c2ccccc2)CC1 (stereo not shown) [Compound 201] | 12.3 µg/mL (≈ 19.9 µM) | 12.3 µg/mL (≈ 19.9 µM) | 12.3 µg/mL (≈ 19.9 µM) | 12.3 µg/mL (≈ 19.9 µM) | – | – | –
COc1nc2ccc(Br)cc2cc1C(c1ccccc1)C(O)(CCN(C)C)c1cccc(F)c1 (stereo not shown) [Compound 39] | – | – | – | – | 4.7 µg/mL (≈ 8.98 µM) | 5.9 µg/mL (≈ 11.3 µM) | IC90 (μg/ml) STA 43300 ([6]; 24 hours): 13.1 µg/mL (≈ 25 µM); IC90 (μg/ml) PAE 27853 ([5]; 24 hours): 10.4 µg/mL (≈ 19.9 µM); IC90 (μg/ml) STA 25923 ([10]; 24 hours): 10.4 µg/mL (≈ 19.9 µM); IC90 (μg/ml) EFA 29212 [1]: 10.4 µg/mL (≈ 19.9 µM); IC90 [7]: 11.7 µg/mL (≈ 22.4 µM); IC90 (μg/ml) SPY 8668 [8]: 1.9 µg/mL (≈ 3.63 µM)
COc1nc2ccc(Br)cc2cc1C(c1ccccc1)C(O)(CCN(C)C)c1cccc(F)c1 (stereo not shown) [Compound 109] | 11.7 µg/mL (≈ 22.4 µM) | – | – | 11.7 µg/mL (≈ 22.4 µM) | 9.3 µg/mL (≈ 17.8 µM) | 13.1 µg/mL (≈ 25 µM) | IC90 [6]: 13.1 µg/mL (≈ 25 µM); IC90 [10]: 10.4 µg/mL (≈ 19.9 µM); IC90 (μg/ml) SPY 8668 [8]: 13.1 µg/mL (≈ 25 µM)
COc1nc2ccc(-c3ccccc3)cc2cc1C(c1ccccc1)C(O)(CCN(C)C)c1ccccc1 (stereo not shown) [Compound 26] | 4.5 µg/mL (≈ 8.95 µM) | 4.5 µg/mL (≈ 8.95 µM) | 10 µg/mL (≈ 19.9 µM) | 2 µg/mL (≈ 3.98 µM) | – | 5.6 µg/mL (≈ 11.1 µM) | IC90 [6]: 11.3 µg/mL (≈ 22.5 µM); IC90 [10]: 8.9 µg/mL (≈ 17.7 µM); IC90 [7]: 11.3 µg/mL (≈ 22.5 µM); IC90 [8]: 2.5 µg/mL (≈ 4.97 µM)
